In patent US6881741B2 (ViroChem Pharma Inc., priority 2001, dated 2005):

What follows are molecules tested against recombinant HCV NS5B (HCV RNA-dependent RNA polymerase) (Hepatitis C virus genotype 1b, UniProt P26663) (assay: biochemical). Conditions: HCV polymerase activity, list of compounds of Example 27; read-out: IC50 (polymerase activity).
Chain of recombinant HCV NS5B (HCV RNA-dependent RNA polymerase) (P26663 2420-3010 limits assumed): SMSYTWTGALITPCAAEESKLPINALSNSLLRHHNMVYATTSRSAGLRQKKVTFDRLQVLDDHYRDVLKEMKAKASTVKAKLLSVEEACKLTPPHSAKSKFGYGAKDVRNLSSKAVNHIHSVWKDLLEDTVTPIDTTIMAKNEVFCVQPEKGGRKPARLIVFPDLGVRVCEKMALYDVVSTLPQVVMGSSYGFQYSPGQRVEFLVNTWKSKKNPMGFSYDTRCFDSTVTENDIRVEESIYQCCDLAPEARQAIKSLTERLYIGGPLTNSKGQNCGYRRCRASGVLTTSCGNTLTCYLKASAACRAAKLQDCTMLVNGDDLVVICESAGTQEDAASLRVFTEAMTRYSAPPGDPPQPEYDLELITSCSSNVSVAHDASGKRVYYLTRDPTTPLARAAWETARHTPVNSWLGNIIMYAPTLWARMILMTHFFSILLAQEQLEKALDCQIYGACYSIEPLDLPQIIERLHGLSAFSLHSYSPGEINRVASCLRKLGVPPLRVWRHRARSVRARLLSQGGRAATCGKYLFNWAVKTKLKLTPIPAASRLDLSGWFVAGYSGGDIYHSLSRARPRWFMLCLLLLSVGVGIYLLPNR
`O=C(O)c1sc(-c2ccccc2)cc1N(C(=O)c1ccc(Cl)cc1Cl)C1CCCC[C@@H]1O` (stereo in doubt) [Compound 538, 3-[(2,4-DICHLORO-BENZOYL)-(2- HYDROXY-CYCLOHEXYL)-AMINO]-5- PHENYL-THIOPHENE-2-CARBOXYLIC ACID] gave an IC50 of less than 5 µM. Work on `O=C(O)c1sc(-c2ccccc2)cc1N(C(=O)c1ccc(Cl)cc1Cl)C1CC[C@@H](C(=O)O)C1` (stereo in doubt) [Compound 547, 3-[(3-CARBOXY-CYCLOPENTYL)-(2,4- DICHLORO-BENZOYL)-AMINO]-5- PHENYL-THIOPHENE-2-CARBOXYLIC ACID] yielded an IC50 of less than 5 µM. Molecule `CC([C@H](O[Si](C)(C)C(C)(C)C)c1ccccc1)N(C(=O)c1ccc(Cl)cc1Cl)c1cc(-c2ccccc2)sc1C(=O)O` (stereo in doubt) [Compound 556, 3-[[2-(TERT-BUTYL-DIMETHYL- SILANYLOXY)-1-METHYL-2-PHENYL- ETHYL]-(2,4-DICHLORO-BENZOYL)- AMINO]-5-PHENYL-THIOPHENE-2- CARBOXYLIC ACID] has an IC50 of 5 to 20 µM.

Same assay, conditions: related polymerase activity (Example 27 list); read-out: IC50
`Cc1cc(S(=O)(=O)N(Cc2cccc(I)c2)c2cc(-c3ccccc3)sc2C(=O)O)c(C)cc1Cl` [Compound 1, 3-[(4-CHLORO-2,5-DIMETHYL-BENZENESULFONYL)-(3-IODO-BENZYL)-AMINO]-5-PHENYL-THIOPHENE-2-CARBOXYLIC ACID] showed an IC50 of 5 to 20 µM. Work on `Cc1cc(S(=O)(=O)N(Cc2cccc(-c3cc4ccccc4o3)c2)c2cc(-c3ccccc3)sc2C(=O)O)c(C)cc1Cl` [Compound 2, 3-[(3-BENZOFURAN-2-YL-BENZYL)-(4-CHLORO-2,5-DIMETHYL-BENZENESULFONYL)-AMINO]-5-PHENYL-THIOPHENE-2-CARBOXYLIC ACID] yielded an IC50 of 5 to 20 µM. Work on `Cc1cc(S(=O)(=O)Nc2cc(-c3ccccc3)sc2C(=O)O)c(C)cc1Cl` [Compound 3, 3-(4-CHLORO-2,5-DIMETHYL-BENZENESULFONYLAMINO)-5-PHENYL-THIOPHENE-2-CARBOXYLIC ACID] yielded an IC50 of 5 to 20 µM. `O=C(O)c1sc(-c2ccccc2)cc1N(Cc1ccc(-c2cccc(C(F)(F)F)c2)o1)C(=O)c1ccc(Cl)cc1Cl` [Compound 4, 3-{(2,4-DICHLORO-BENZOYL)-[5-(3-TRIFLUOROMETHYL-PHENYL)-FURAN-2-YLMETHYL]-AMINO}-5-PHENYL-THIOPHENE-2-CARBOXYLIC ACID] showed an IC50 of less than 5 µM. For `Cc1cc(S(=O)(=O)N(C)c2cc(-c3ccccc3)sc2C(=O)O)c(C)cc1Cl` [Compound 5, 3-[(4-CHLORO-2,5-DIMETHYL-BENZENESULFONYL)-METHYL-AMINO]-5-PHENYL-THIOPHENE-2-CARBOXYLIC ACID], the IC50 was 5 to 20 µM. For `Cc1ccc(S(=O)(=O)Nc2cc(-c3ccc(F)cc3)sc2C(=O)O)cc1` [Compound 6, 5-(4-FLUORO-PHENYL)-3-(TOLUENE-4-SULFONYLAMINO)-THIOPHENE-2-CARBOXYLIC ACID], the IC50 was less than 5 µM. In the case of `O=C(O)c1sc(-c2ccccc2)cc1NS(=O)(=O)c1ccc(Cl)cc1Cl` [Compound 7, 3-(2,4-DICHLORO-BENZENESULFONYLAMINO)-5-PHENYL-THIOPHENE-2-CARBOXYLIC ACID], the IC50 is reported as less than 5 µM. With `Cc1cc(S(=O)(=O)Nc2cc(-c3ccc(F)cc3)sc2C(=O)O)c(C)cc1Cl` [Compound 8, 3-(4-CHLORO-2,5-DIMETHYL-BENZENESULFONYLAMINO)-5-(4-FLUORO-PHENYL)-THIOPHENE-2-CARBOXYLIC ACID] the IC50 was less than 5 µM. With `CN(C(=O)c1ccc(Cl)cc1Cl)c1cc(-c2ccccc2)sc1C(=O)O` [Compound 9, 3-[(2,4-DICHLORO-BENZOYL)-METHYL-AMINO]-5-PHENYL-THIOPHENE-2-CARBOXYLIC ACID] the IC50 was less than 5 µM. `CC(C)(C)c1cc(NS(=O)(=O)c2ccc(Cl)cc2)c(C(=O)O)s1` [Compound 10, 5-TERT-BUTYL-3-(4-CHLORO-BENZENESULFONYLAMINO)-THIOPHENE-2-CARBOXYLIC ACID] showed an IC50 of less than 5 µM. With `Cc1ccc(S(=O)(=O)Nc2cc(-c3ccsc3)sc2C(=O)O)cc1` [Compound 11, 4-(TOLUENE-4-SULFONYLAMINO)-[2,3′]BITHIOPHENYL-5-CARBOXYLIC ACID] the IC50 was 5 to 20 µM. With `O=C(O)c1sc(-c2ccccc2)cc1N(Cc1ccc(-c2cc3ccccc3o2)s1)C(=O)c1ccc(Cl)cc1Cl` [Compound 12, 3-[(5-BENZOFURAN-2-YL-THIOPHEN-2-YLMETHYL)-(2,4-DICHLORO-BENZOYL)-AMINO]-5-PHENYL-THIOPHENE-2-CARBOXYLIC ACID] the IC50 was 5 to 20 µM. Molecule `Cc1ccc(S(=O)(=O)Nc2cc(-c3ccccc3)sc2C(=O)O)cc1` [Compound 13, 5-PHENYL-3-(TOLUENE-4-SULFONYLAMINO)-THIOPHENE-2-CARBOXYLIC ACID] has an IC50 of less than 5 µM. `Cc1ccccc1S(=O)(=O)Nc1cc(-c2ccccc2)sc1C(=O)O` [Compound 15, 5-PHENYL-3-(TOLUENE-2-SULFONYLAMINO)-THIOPHENE-2-CARBOXYLIC ACID] showed an IC50 greater than 20 µM. Work on `Cc1cccc(S(=O)(=O)Nc2cc(-c3ccccc3)sc2C(=O)O)c1` [Compound 16, 5-PHENYL-3-(TOLUENE-3-SULFONYLAMINO)-THIOPHENE-2-CARBOXYLIC ACID] yielded an IC50 of 5 to 20 µM. `O=C(O)c1sc(-c2ccccc2)cc1NS(=O)(=O)c1ccccc1` [Compound 17, 3-BENZENESULFONYLAMINO-5-PHENYL-THIOPHENE-2-CARBOXYLIC ACID] gave an IC50 of 5 to 20 µM. `O=C(O)c1sc(-c2ccccc2)cc1NS(=O)(=O)c1ccc(Cl)cc1` [Compound 18, 3-(4-CHLORO-BENZENESULFONYLAMINO)-5-PHENYL-THIOPHENE-2-CARBOXYLIC ACID] gave an IC50 of less than 5 µM. For `Cc1ccc(C)c(S(=O)(=O)Nc2cc(-c3ccccc3)sc2C(=O)O)c1` [Compound 21, 3-(2,5-DIMETHYL-BENZENESULFONYLAMINO)-5-PHENYL-THIOPHENE-2-CARBOXYLIC ACID], the IC50 was 5 to 20 µM. Work on `COc1cc(C)c(S(=O)(=O)Nc2cc(-c3ccccc3)sc2C(=O)O)c(C)c1C` [Compound 22, 3-(4-METHOXY-2,3,6-TRIMETHYL-BENZENESULFONYLAMINO)-5-PHENYL-THIOPHENE-2-CARBOXYLIC ACID] yielded an IC50 of less than 5 µM. Molecule `O=C(O)c1sc(-c2ccccc2)cc1NS(=O)(=O)c1cccs1` [Compound 23, 5-PHENYL-3-(THIOPHENE-2-SULFONYLAMINO)-THIOPHENE-2-CARBOXYLIC ACID] has an IC50 of less than 5 µM. With `O=C(O)c1sc(-c2ccccc2)cc1NS(=O)(=O)c1ccc(F)cc1F` [Compound 27, 3-(2,4-DIFLUORO-BENZENESULFONYLAMINO)-5-PHENYL-THIOPHENE-2-CARBOXYLIC ACID] the IC50 was less than 5 µM. `O=C(Nc1cc(Cl)nc(Cl)c1)Nc1cc(-c2ccccc2)sc1C(=O)O` [Compound 28, 3-[3-(2,6-DICHLORO-PYRIDIN-4-YL)-UREIDO]-5-PHENYL-THIOPHENE-2-CARBOXYLIC ACID] gave an IC50 of less than 5 µM. `O=C(O)c1sc(-c2ccccc2)cc1NS(=O)(=O)c1ccccc1Cl` [Compound 29, 3-(2-CHLORO-BENZENESULFONYLAMINO)-5-PHENYL-THIOPHENE-2-CARBOXYLIC ACID] showed an IC50 of 5 to 20 µM. `O=C(O)c1sc(-c2ccccc2)cc1NS(=O)(=O)c1ccccc1F` [Compound 30, 3-(2-FLUORO-BENZENESULFONYLAMINO)-5-PHENYL-THIOPHENE-2-CARBOXYLIC ACID] showed an IC50 of 5 to 20 µM. With `O=C(O)c1sc(-c2ccccc2)cc1NS(=O)(=O)c1ccccc1OC(F)(F)F` [Compound 31, 5-PHENYL-3-(2-TRIFLUOROMETHOXY-BENZENESULFONYLAMINO)-THIOPHENE-2-CARBOXYLIC ACID] the IC50 was greater than 20 µM. `CC(C)(C)c1ccc(S(=O)(=O)Nc2cc(-c3ccccc3)sc2C(=O)O)cc1` [Compound 32, 3-(4-TERT-BUTYL-BENZENESULFONYLAMINO)-5-PHENYL-THIOPHENE-2-CARBOXYLIC ACID] showed an IC50 of 5 to 20 µM.
